Experimental data: PubChem BioAssay AID1963852 (Molecular Pharmacology Branch, DTP, NCI, 2024)

Test system: 282377-053-R-J1-PDC complex spheroid viability
Assay: Anticancer human tumor 282377-053-R-J1-PDC patient-derived colon adenocarcinoma cell line growth inhibition [POLQ]
Settings: for IC50: curve of first compound; for viability, T/C: stronger effect = lower value
Procedure: Multicellular complex tumor spheroid response to Polymerase (POL) inhibitors (novobiocin, ART-558, RP6685) in combination with a variety of drugs and investigational agents in selected tumor cell lines
The POL inhibitors (novobiocin, ART-558, and RP6685) were evaluated both individually and in combination with standard of care and investigational anticancer small molecules within a complex spheroid model of solid tumors. . Complex spheroids include a stromal component modeled by human endothelial cells (HUVEC) and fibroblasts modeled by human mesenchymal stem cells (MSCs). The concentration ranges selected for each drug and investigational agent were based upon clinically achievable concentrations if the clinical Cmax of the agent was known.
Compounds. The drugs and investigational agents: novobiocin (NSC847541), ART-558 (NSC835418), RP-6685 (NSC848927), peposertib (NSC802822), ceralasertib (NSC780249), elimusertib (NSC800525), camonsertib (NSC841442), AZD-1390 (NSC803789), olaparib (NSC753686), talazoparib (NSC767125), rucaparib (NSC756644), sotorasib (NSC818433), MRTX-1133 (NSC836407), SN-38 (NSC673596), topotecan (NSC609699), epotoside (NSC141540), doxorubicin (NSC123127), gemcitabine (NSC613327), 5-fluorouracil (NSC19893), paclitaxel (NSC125973), vemurafenib (NSC761431), MSA-2 (NSC828583), SN-011 (NSC837082), adavosertib (NSC754352), prexasertib (NSC758257), carboplatin (NSC241240) and oxaliplatin (NSC266046), were obtained from the National Cancer Institute (NCI) Developmental Therapeutics Program Chemical Repository (21). The FDA-approved anticancer drug set is available from the Developmental Therapeutics Program at https://dtp.cancer.gov/organization/dscb/obtaining/. […] The stock solutions were prepared in dimethyl sulfoxide (DMSO, Sigma-Aldrich, St. Louis, MO, cat. D2650), except for the platinum compounds which were prepared in saline (Quality Biological, Gaithersburg, MD, cat. 114-055-101), at 800-fold the tested concentration and stored at -70 degrees C prior to their use. All drugs and investigational agents were tested over a range starting from a high concentration at or near the clinical Cmax and decreasing in half-log increments. If the clinical Cmax for an agent had not been determined, the highest concentration tested was 10 microM, except for SN-38, which was tested at a high concentration of 1 microM.
Cell Culture. All cells were maintained in an incubator at 37 degrees C and 5% CO2 with 95% humidity. The PDC lines were cultured according to standard operating procedures established by the NCI PDMR (https://pdmr.cancer.gov). Table 3 of the manuscript, lists the cell lines along with the number of the three cell types plated to form the mct-spheroids and media for tumor cell growth. After thawing, all PDC lines, except 997537-175-T-J1-PDC and 415267-285-R-J2-PDC, were cultured in Matrigel-coated flasks prepared with a working solution of 1X Ham's F-12 nutrient mix, without supplementation (Thermo Fisher Scientific, cat. 11765054), 100 U/mL penicillin-streptomycin (Thermo Fisher Scientific, cat. 15140122), and 2.5% Matrigel (Corning Inc., Corning, NY, cat. 354248) for the first three passages. The two PDC lines 997537-175-T-J1-PDC and 415267-285-R-J2-PDC were cultured on uncoated flasks. The 857933-349-R-J2-PDC line was cultured in 6C/Colon 1B media containing advanced DMEM/F-12 (Thermo Fisher Scientific, cat. 12634028), 10 mM HEPES (Thermo Fisher Scientific, cat. 15630080), 1X GlutaMAX supplement (Thermo Fisher Scientific, cat. 35050061), 0.1 mg/mL primocin (InvivoGen, San Diego, CA, cat. ant-pm-2), 10% defined fetal bovine serum, heat inactivated (HyClone Laboratories Inc., Logan, UT, cat. SH30070.03HI), 50% L-WRN conditioned media (ATCC, cat. CRL-3276), 1.25 mM N-Acetyl-L-cysteine (Sigma-Aldrich, cat. A9165), 10 mM nicotinamide (Sigma-Aldrich, cat. N0636), 1X B-27 supplement (Thermo Fisher Scientific, cat. 17504044), 1X N-2 supplement (Thermo Fisher Scientific, cat. […]

[1] = second compound 0.0316 µM, first compound 0.0316 µM
[2] = second compound 0.0316 µM, first compound 0.1 µM
[3] = second compound 0.0316 µM, first compound 0.316 µM
[4] = second compound 0.0316 µM, first compound 1 µM
[5] = second compound 0.1 µM, first compound 0.0316 µM
[6] = second compound 0.1 µM, first compound 0.1 µM
[7] = second compound 0.1 µM, first compound 0.316 µM
[8] = second compound 0.1 µM, first compound 1 µM
[9] = second compound 0.316 µM, first compound 0.0316 µM
[10] = second compound 0.316 µM, first compound 0.1 µM
[11] = second compound 0.316 µM, first compound 0.316 µM
[12] = second compound 0.316 µM, first compound 1 µM
[13] = second compound 1 µM, first compound 0.0316 µM
[14] = second compound 1 µM, first compound 0.1 µM
[15] = second compound 1 µM, first compound 0.316 µM
[16] = second compound 1 µM, first compound 1 µM
[17] = second compound 3.16 µM, first compound 0.0316 µM
[18] = second compound 3.16 µM, first compound 0.1 µM
[19] = second compound 3.16 µM, first compound 0.316 µM
[20] = second compound 3.16 µM, first compound 1 µM
[21] = second compound 10 µM, first compound 0.0316 µM
[22] = second compound 10 µM, first compound 0.1 µM
[23] = second compound 10 µM, first compound 0.316 µM
[24] = second compound 10 µM, first compound 1 µM
[25] = second compound 0.0316 µM, first compound 3.16 µM
[26] = second compound 0.0316 µM, first compound 10 µM
[27] = second compound 0.1 µM, first compound 3.16 µM
[28] = second compound 0.1 µM, first compound 10 µM
[29] = second compound 0.316 µM, first compound 3.16 µM
[30] = second compound 0.316 µM, first compound 10 µM
[31] = second compound 1 µM, first compound 3.16 µM
[32] = second compound 1 µM, first compound 10 µM
[33] = second compound 3.16 µM, first compound 3.16 µM
[34] = second compound 3.16 µM, first compound 10 µM
[35] = second compound 10 µM, first compound 3.16 µM
[36] = second compound 10 µM, first compound 10 µM
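Further: spheroids exposed to compounds for seven days.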
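Wherever viability, T/C is given: 100% = DMSO vehicle control viability.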

SMILES: CCc1c2c(nc3ccc(O)cc13)-c1cc3c(c(=O)n1C2)COC(=O)[C@]3(O)CC + Cc1cccc(N(C)C(=O)C2C(O)CCN2c2nc(C)cc(C(F)(F)F)c2C#N)c1
- IC50 (second compound 0.0316 µM): 50.3 nM
- IC50 (second compound 0.1 µM): 180 nM
- IC50 (second compound 0.316 µM): 71.5 nM
- IC50 (second compound 1 µM): 116 nM
- IC50 (second compound 3.16 µM): 70.2 nM
- IC50 (second compound 10 µM): 57.5 nM
- viability, T/C (second compound 0.0316 µM, first compound 0.00316 µM): 122%
- viability, T/C (second compound 0.0316 µM, first compound 0.01 µM): 76.2%
- viability, T/C [1]: 51.8%
- viability, T/C [2]: 49.2%
- viability, T/C [3]: 40.1%
- viability, T/C [4]: 23.2%
- viability, T/C (second compound 0.1 µM, first compound 0.00316 µM): 97.1%
- viability, T/C (second compound 0.1 µM, first compound 0.01 µM): 81.6%
- viability, T/C [5]: 72%
- viability, T/C [6]: 62.4%
- viability, T/C [7]: 41.5%
- viability, T/C [8]: 21.8%
- viability, T/C (second compound 0.316 µM, first compound 0.00316 µM): 102%
- viability, T/C (second compound 0.316 µM, first compound 0.01 µM): 74.9%
- viability, T/C [9]: 54.4%
- viability, T/C [10]: 52%
- viability, T/C [11]: 41.4%
- viability, T/C [12]: 25.7%
- viability, T/C (second compound 1 µM, first compound 0.00316 µM): 110%
- viability, T/C (second compound 1 µM, first compound 0.01 µM): 86.8%
- viability, T/C [13]: 53.5%
- viability, T/C [14]: 51.6%
- viability, T/C [15]: 44.8%
- viability, T/C [16]: 17.2%
- viability, T/C (second compound 3.16 µM, first compound 0.00316 µM): 104%
- viability, T/C (second compound 3.16 µM, first compound 0.01 µM): 69.3%
- viability, T/C [17]: 63.5%
- viability, T/C [18]: 44.4%
- viability, T/C [19]: 40.8%
- viability, T/C [20]: 22.5%
- viability, T/C (second compound 10 µM, first compound 0.00316 µM): 106%
- viability, T/C (second compound 10 µM, first compound 0.01 µM): 87.5%
- viability, T/C [21]: 49.5%
- viability, T/C [22]: 42.5%
- viability, T/C [23]: 37.4%
- viability, T/C [24]: 16.7%

SMILES: Nc1ccn(C2OC(CO)C(O)C2(F)F)c(=O)n1 (stereo unspecified) + Cc1cccc(N(C)C(=O)C2C(O)CCN2c2nc(C)cc(C(F)(F)F)c2C#N)c1
- IC50 (second compound 0.0316 µM): 98.1 nM
- IC50 (second compound 0.1 µM): 95.7 nM
- IC50 (second compound 0.316 µM): 94.7 nM
- IC50 (second compound 1 µM): 100 nM
- IC50 (second compound 3.16 µM): 115 nM
- IC50 (second compound 10 µM): 111 nM
- viability, T/C [1]: 84%
- viability, T/C [2]: 45.3%
- viability, T/C [3]: 35.2%
- viability, T/C [4]: 23.9%
- viability, T/C [25]: 17.8%
- viability, T/C [26]: 13.6%
- viability, T/C [5]: 101%
- viability, T/C [6]: 46.8%
- viability, T/C [7]: 30.3%
- viability, T/C [8]: 23.1%
- viability, T/C [27]: 23.2%
- viability, T/C [28]: 16%
- viability, T/C [9]: 81.7%
- viability, T/C [10]: 47%
- viability, T/C [11]: 31.9%
- viability, T/C [12]: 25.9%
- viability, T/C [29]: 18.2%
- viability, T/C [30]: 16.6%
- viability, T/C [13]: 84.5%
- viability, T/C [14]: 45.5%
- viability, T/C [15]: 32.7%
- viability, T/C [16]: 30.4%
- viability, T/C [31]: 21.7%
- viability, T/C [32]: 10.5%
- viability, T/C [17]: 92.5%
- viability, T/C [18]: 50.9%
- viability, T/C [19]: 31.8%
- viability, T/C [20]: 30.2%
- viability, T/C [33]: 24.6%
- viability, T/C [34]: 13.9%
- viability, T/C [21]: 74.9%
- viability, T/C [22]: 48.6%
- viability, T/C [23]: 38.2%
- viability, T/C [24]: 25%
- viability, T/C [35]: 20.8%
- viability, T/C [36]: 12.3%

SMILES: O=c1[nH]cc(F)c(=O)[nH]1 + Cc1cccc(N(C)C(=O)C2C(O)CCN2c2nc(C)cc(C(F)(F)F)c2C#N)c1
- IC50 (second compound 0.0316 µM): > 10000 nM
- IC50 (second compound 0.1 µM): > 10000 nM
- IC50 (second compound 0.316 µM): > 10000 nM
- IC50 (second compound 1 µM): > 10000 nM
- IC50 (second compound 3.16 µM): > 10000 nM
- IC50 (second compound 10 µM): > 10000 nM
- viability, T/C [1]: 111%
- viability, T/C [2]: 104%
- viability, T/C [3]: 89.8%
- viability, T/C [4]: 78.8%
- viability, T/C [25]: 70.3%
- viability, T/C [26]: 68.5%
- viability, T/C [5]: 102%
- viability, T/C [6]: 111%
- viability, T/C [7]: 128%
- viability, T/C [8]: 86%
- viability, T/C [27]: 76.7%
- viability, T/C [28]: 70.4%
- viability, T/C [9]: 117%
- viability, T/C [10]: 88.7%
- viability, T/C [11]: 116%
- viability, T/C [12]: 74.9%
- viability, T/C [29]: 80.3%
- viability, T/C [30]: 67.9%
- viability, T/C [13]: 107%
- viability, T/C [14]: 85.5%
- viability, T/C [15]: 105%
- viability, T/C [16]: 104%
- viability, T/C [31]: 82.7%
- viability, T/C [32]: 63.1%
- viability, T/C [17]: 99.1%
- viability, T/C [18]: 104%
- viability, T/C [19]: 80.6%
- viability, T/C [20]: 88.6%
- viability, T/C [33]: 80.1%
- viability, T/C [34]: 68.7%
- viability, T/C [21]: 113%
- viability, T/C [22]: 109%
- viability, T/C [23]: 107%
- viability, T/C [24]: 76.4%
- viability, T/C [35]: 69.7%
- viability, T/C [36]: 63.8%
